Measured values reported in patent publication US8680159B2, “Bradykinin 1 receptor modulating compounds” (Gruenenthal GmbH, priority 2010, dated 2014).

Tests used:
[1] = target: T1, B1R receptor of the rat (CHO K1 cells stably transfected with the B1R gene of the rat) (Rattus norvegicus, UniProt P97583); assay: Functional study on the bradykinin receptor 1 (B1R), Ca2+ fluorescence (Fluo-4) FLIPR/Novostar assay, rB1R cells; type: cell-based; conditions: CHO-K1, 10 μM, read-out: % inhibition (rat B1R) at 10 μM
T1 construct: expressed in transfected cells; host or cells: CHO K1 cells (Chinese hamster ovary), stably transfected
T1 sequence (P97583 1-337): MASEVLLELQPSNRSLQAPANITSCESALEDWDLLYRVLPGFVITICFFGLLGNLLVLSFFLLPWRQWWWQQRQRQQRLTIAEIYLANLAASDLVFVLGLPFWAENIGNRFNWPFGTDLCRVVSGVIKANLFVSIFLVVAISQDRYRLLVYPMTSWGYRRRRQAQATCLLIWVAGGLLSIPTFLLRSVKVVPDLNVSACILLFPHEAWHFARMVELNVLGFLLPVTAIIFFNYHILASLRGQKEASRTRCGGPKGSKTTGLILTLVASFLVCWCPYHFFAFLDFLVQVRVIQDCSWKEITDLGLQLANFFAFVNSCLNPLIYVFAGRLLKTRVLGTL
Outline: (§1)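 Ca2+ influx (Fluo-4, peak fluorescence, λex 488/λem 540 nm) was measured in CHO K1 lines expressing rat or human B1R. After a 10 μM test-compound pre-addition scoring % activation, cells received EC80 agonist: Des-Arg9-bradykinin for rat, Lys-Des-Arg9-bradykinin for human. Antagonism was expressed as % of maximum inhibition, with IC50 from varied concentrations.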

[2] = target: T2, human B1R receptor (CHO K1 cells stably transfected with the human B1R gene) (Homo sapiens, UniProt P46663); assay: Functional study on the bradykinin receptor 1 (B1R), Ca2+ fluorescence (Fluo-4) FLIPR/Novostar assay, hB1R cells; type: cell-based; conditions: CHO-K1, read-out: % inhibition (human B1R) at 10 μM
T2 construct: expressed in transfected cells; host or cells: CHO K1 cells (Chinese hamster ovary), stably transfected
T2 sequence (P46663 1-353): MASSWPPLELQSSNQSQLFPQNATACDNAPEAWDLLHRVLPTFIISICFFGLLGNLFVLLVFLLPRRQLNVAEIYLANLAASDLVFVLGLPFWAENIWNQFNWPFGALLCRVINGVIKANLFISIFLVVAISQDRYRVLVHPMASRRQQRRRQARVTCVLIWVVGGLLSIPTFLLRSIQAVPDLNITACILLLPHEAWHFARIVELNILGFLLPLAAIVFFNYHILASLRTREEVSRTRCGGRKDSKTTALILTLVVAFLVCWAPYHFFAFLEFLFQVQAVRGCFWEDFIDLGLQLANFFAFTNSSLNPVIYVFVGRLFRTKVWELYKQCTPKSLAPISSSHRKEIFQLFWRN
Outline: as §1

inhibition at 10 µM [1] [%] | inhibition at 10 µM [2] [%] | SMILES
103 | 100 | CN(C(=O)c1ccc2c(c1)[C@H](NC(=O)C1(c3ccccc3F)CC1)CC2)C1CCN(c2ccncc2)CC1 [Example H-46, (3R)-3-[[1-(2-Fluorophenyl)-cyclopropanecarbonyl]amino]-N-methyl-N-(1-pyridin-4-yl-piperidin-4-yl)-2,3-dihydro-1H-indene-5-carboxylic acid amide]
104 | 100 | CN(C(=O)c1ccc2c(c1)[C@H](NC(=O)C1(c3ccccc3F)CCCC1)CC2)C1CCN(c2ccncc2)CC1 [Example H-47, (3R)-3-[[1-(2-Fluorophenyl)-cyclopentanecarbonyl]amino]-N-methyl-N-(1-pyridin-4-yl-piperidin-4-yl)-2,3-dihydro-1H-indene-5-carboxylic acid amide]
75 | 11 | CN(C(=O)c1ccc2c(c1)[C@H](NC(=O)c1ccccc1Cl)CC2)C1CCN(Cc2ccnc(N3CCCC3)c2)CC1 [Example H-48, (3R)-3-[(2-Chloro-benzoyl)amino]-N-methyl-N-[1-[(2-pyrrolidin-1-yl-pyridin-4-yl)-methyl]-piperidin-4-yl]-2,3-dihydro-1H-indene-5-carboxylic acid amide]
101 | 85 | Cc1cc(N2CCC(CN(C)C(=O)c3ccc4c(c3)[C@H](NC(=O)c3ccccc3Cl)CC4)CC2)ccn1 [Example H-49, (3R)-3-[(2-Chloro-benzoyl)amino]-N-methyl-N-[[1-(2-methyl-pyridin-4-yl)-piperidin-4-yl]-methyl]-2,3-dihydro-1H-indene-5-carboxylic acid amide]
86 | 23 | COc1ccc(N2CCC(N(C)C(=O)c3ccc4c(c3)[C@H](NC(=O)c3ccccc3Cl)CC4)CC2)cc1 [Example H-50, (3R)-3-[(2-Chloro-benzoyl)amino]-N-[1-(4-methoxyphenyl)-piperidin-4-yl]-N-methyl-2,3-dihydro-1H-indene-5-carboxylic acid amide]
105 | 99 | CN(C(=O)c1ccc2c(c1)[C@H](NC(=O)C1(c3ccccc3Cl)CC1)CC2)C1CCN(c2ccncc2)CC1 [Example H-51, (3R)-3-[[1-(2-Chlorophenyl)-cyclopropanecarbonyl]amino]-N-methyl-N-(1-pyridin-4-yl-piperidin-4-yl)-2,3-dihydro-1H-indene-5-carboxylic acid amide]
73 | 98 | Cc1cc(N2CCC(CN(C)C(=O)c3ccc4c(c3)CC[C@H]4N3Cc4cccc(Cl)c4C3=O)CC2)ccn1 [Example H-52, (1R)-1-(4-Chloro-3-oxo-1,2-dihydro-isoindol-2-yl)-N-methyl-N-[[1-(2-methyl-pyridin-4-yl)-piperidin-4-yl]-methyl]-2,3-dihydro-1H-indene-5-carboxylic acid amide]
50 | 56 | CN(C(=O)c1ccc2c(c1)CC[C@H]2N1Cc2cccc(Cl)c2C1=O)C1CCN(Cc2ccnc(N3CCCC3)c2)CC1 [Example H-53, (1R)-1-(4-Chloro-3-oxo-1,2-dihydro-isoindol-2-yl)-N-methyl-N-[1-[(2-pyrrolidin-1-yl-pyridin-4-yl)-methyl]-piperidin-4-yl]-2,3-dihydro-1H-indene-5-carboxylic acid amide]
93 | 29 | CN(C(=O)c1ccc2c(c1)[C@H](NC(=O)c1ccccc1Cl)CC2)C1CCN(c2ccc(Cl)cc2)CC1 [Example H-54, (3R)-3-[(2-Chloro-benzoyl)amino]-N-[1-(4-chlorophenyl)-piperidin-4-yl]-N-methyl-2,3-dihydro-1H-indene-5-carboxylic acid amide]
104 | 99 | Cc1cc(N2CCC(N(C)C(=O)c3ccc4c(c3)[C@H](NC(=O)c3ccccc3Cl)CC4)CC2)ccn1 [Example H-55, (3R)-3-[(2-Chloro-benzoyl)amino]-N-methyl-N-[1-(2-methyl-pyridin-4-yl)-piperidin-4-yl]-2,3-dihydro-1H-indene-5-carboxylic acid amide]
